Results on 7 molecules are retold here after PMC10734620, “A blinded in vitro analysis of the intrinsic immunogenicity of hepatotoxic drugs: implications for preclinical risk assessment” (Toxicological Sciences, 2023).

For one series, the system named is T-cell clones. In words: Generation and drug-specificity testing of T-cell clones. The conditions noted are these: for Detection of drug-responsive T-cell clones / T-cell clones responsive to drug (SI ≥ 2): 3 donors; for Detection of drug-responsive T-cell clones: SI ≥ 2; for Dose-dependent proliferation of drug-responsive T-cell clones: titrated concentrations, 48 h, EBV-transformed B-cells; for T-cell clones responsive to drug (SI ≥ 2): training compounds, maximum of 216 clones per donor; for Overall immunogenicity call in T-cell assays: priming assay and/or T-cell clones. It is filed as cell-based, human. Here is the method:
To establish T-cell lines, PBMC from 3 healthy HLA-typed (Table 2) donors were cultured with individual test compounds (at concentrations not associated with inhibition of mitogen-driven PBMC proliferation; see Figure 2 for individual concentrations) for 14 days. Medium was supplemented with IL-2 (50 U/ml; Peprotech, New Jersey) to maintain drug-specific T-cell expansion. T-cell clones were generated from the T-cell lines by serial dilution and repetitive mitogen stimulation ([Schnyder et al., 2000]). T-cells (0.3–3 cells/well) were cultured with irradiated allogenic PBMC (5 × 10^4/well) and PHA-P (1 µg/ml) in IL-2 containing medium. The medium was supplemented with fresh IL-2 on days 6, 9 and every 2 days thereafter. Growing cultures were expanded further with a second round of mitogen stimulation and tested for drug-specific T-cell proliferation on day 28. Cloned T-cells (5 × 10^4/well) were cultured with irradiated autologous EBV-transformed B-cells (1 × 10^4/well) and drug in duplicate wells for 48 h. Wells containing medium served as a negative control. Proliferation was measured by the addition of [^3H]-thymidine followed by scintillation counting. T-cell clones with SI ≥ 2 were considered drug-responsive and expanded using irradiated allogeneic PBMC for dose-response studies and assessment of CD4/8 phenotyping.
Proliferation was measured by the addition of [^3H]-thymidine as described above.
T-cell clones were washed with FACS buffer and CD phenotype determined using flow cytometry. Cells (10 000) were acquired using a FACSCanto II (BD Biosciences) and data analyzed by FACSDiva software.
Figure 6. Generation of training compound (nitroso sulfamethoxazole, vancomycin, and Bandrowski’s base)-specific T-cell clones. PBMC from 3 healthy donors were cultured with training compounds and supplemented with IL-2 (50 U/ml) for 14 days. T-cell clones were generated from the T-cell lines by serial dilution and repetitive mitogen stimulation. T-cells (0.3–3 cells/well) were stimulated with irradiated allogenic PBMC (5 × 10^4/well) and phytohemagglutinin (1 µg/ml). Well growing cultures were subjected to a second round of expansion then tested for drug-specific T-cell proliferation. Proliferation was measured by the addition of ^3H-thymidine followed by scintillation counting. A–C, Initial specificity test for nitroso sulfamethoxazole, vancomycin, and Bandrowski’s base clones. T-cell clones showing stimulation index, SI ≥ 2 were considered drug-responsive and expanded and used in dose-response studies. SI = Drug-induced T-cell proliferation divided by T-cell proliferation in cell culture media. […] T-cell activation was determined using [^3H]-thymidine incorporation.
Figure 7. […] PBMC from 3 healthy donors were cultured with test compounds and supplemented with IL-2 (50 U/ml) for 14 days. T-cell clones were generated from the T-cell lines by serial dilution and repetitive mitogen stimulation. T-cells (0.3–3 cells/well) were stimulated with irradiated allogenic PBMC (5 × 10^4/well) and phytohemagglutinin (1 µg/ml). Well growing cultures were subjected to a second round of expansion then tested for drug-specific T-cell proliferation. Proliferation was measured by the addition of ^3H-thymidine followed by scintillation counting. […] T-cell activation was determined using [^3H]-thymidine incorporation.

For a further series, the system named is naïve T-cells. Nature of the series: Priming of naïve human T-cells (dendritic cell-T-cell coculture). Format: cell-based. The conditions noted are these: for Proliferation of primed T-cells restimulated with titrated concentrations: 3 drug concentrations (low, medium, high), 48 h; for Number of donors with naïve T-cell priming: 3 study donors; for Proliferation of primed T-cells, drug- vs medium-restimulated wells: 14 days priming, restimulation 48 h at single concentration, 48 wells, [3H]-thymidine. The protocol: CD14+ monocytes were positively selected using CD14 antibody-conjugated microbeads. This was followed by the depletion of CD25+ cells from the CD14- population and the negative selection of CD45RA+ naïve T-cells. […] Dendritic cells were generated by culturing monocytes with a cocktail of GM-CSF (800 U/ml) and IL-4 (800 U/ml) in culture media for 6 days. Both cytokines were purchased from Peprotech (New Jersey). A maturation cocktail of TNF-α (25 ng/ml) and LPS (1 µg/ml) was added for 16 h before establishing the T-cell priming culture. Dendritic cells (8 × 10^3 per well) were cultured with naïve T-cells (1 × 10^5 per well) and the test compounds in a 96-well U-bottom tissue culture plate for 14 days at 37°C, 5% CO2. Cells were then washed extensively to remove unbound drug and cultures were restimulated with test compound or medium control (48 wells) for 48 h. Subsequent experiments were performed with training compounds to investigate the dose-dependent stimulation of naïve T-cells. In these experiments, T-cells were cultured with 3 concentrations of the test compound and medium (negative control) during the restimulation step. T-cell proliferative responses were determined by addition of [^3H]-thymidine (0.5 µCi/well) for the final 16 h of the culture period. Plates were harvested and counted as described above. […] Student’s t test was performed to determine statistical significance of T-cell proliferation when comparing medium- and drug-treated cultures (*p ≤ .05; **p ≤ .005; ***p < .001).
Figure 3. Naïve T-cell priming with training compounds. CD14+ monocytes were utilized to generate dendritic cells with a cocktail of GM-CSF (800 U/ml) and IL-4 (800 U/ml) in culture media for 6 days. […] A, Nitroso sulfamethoxazole. B, Vancomycin. C, Bandrowski’s base. D, Carbamazepine. E, Piperacillin. The degree of naïve T-cell priming was determined by comparing the counts per minutes (cpm) of drug and media-treated cultures using a beta counter. Student’s t test was performed to determine statistical significance (*p ≤ .05; **p ≤ .005; ***p < .001). Each data point represents T-cells proliferation in individual well of a 96 U-bottomed plate.
Figure 4. Dose-dependent stimulation of primed T-cells with training compound. […] Primed cells were washed extensively and then restimulated with 3 drug concentrations (low, medium, and high) for 48 h followed by determination of T-cell activation by [^3H]-thymidine incorporation. Each data point represents T-cells proliferation in individual well of a 96 U-bottomed plate.
Figure 5. Naïve T-cell priming with test compounds. […] B, Dacarbazine. […] F, Iproniazid. G, Mepivacaine. H, Nevirapine. […] J, Phenoxybenzamine. Primed cells were washed extensively and then restimulated medium or drug for 48 h followed by determination of T-cell activation by [^3H]-thymidine incorporation. Each data point represents T-cells proliferation in individual well of a 96 U-bottomed plate.

The subject of another series is PBMC. In words: Inhibition of mitogen-induced (PHA-P) PBMC proliferation. It is filed as cell-based, human. The conditions noted are these: read-out: IC50, inhibition of mitogen-driven PBMC proliferation. The protocol: Test compounds were provided by GSK to Liverpool as blinded dry powders with a given volume of dimethyl sulfoxide to prepare stock concentrations of 50 mM. Stock concentrations were aliquoted and stored at −80°C until required for experiments. A fresh aliquot was utilized for every experiment. PBMC from 3 healthy donors were used to determine the maximum tolerated concentration of each test compound. PBMC (0.15 × 10^6) were cultured with graded compound concentrations in U-bottomed 96-well plates for 48 h at 37°C, 5% CO2. Phytohemagglutinin (PHA-P; 10 µg/ml) was added to cells for a further 24 h followed by assessment of proliferation through the addition of [^3H]-thymidine (0.5 µCi/well) for the last 16 h. […] The IC50 value was then calculated using 4-parameter logistic curve-fitting model (GraphPad prism 7.0).
Figure 2. Toxicity profiles of training and test compounds. […] PHA-P (10 µg/ml) was added to cells for a further 24 h followed by assessment of proliferation through the addition of [^3H]-thymidine (0.5 µCi/well) for the last 16 h. […] 4-parameter logistic functions were fit to the data and IC50 values were then reported (GraphPad prism 7.0). […] LPB (Liverpool Pharmacology Biobank) represents the unique identifier for PBMC isolated from each consented healthy blood donor for drug safety research. Percentage proliferation for each compound concentration = Proliferation following drug exposure divided by proliferation after cell culture media exposure multiplied by 100.

Details of series [1]: method as in Sakatis et al., 2012; Schofield et al., 2021. To be noted: Positive = above the threshold of concern; assays not listed negative; ref Sakatis et al., 2012; Schofield et al., 2021; cited from earlier work.
Setting [2] is: Homo sapiens, PBMC, PBMC from 3 healthy donors, compound 48 h, then PHA-P 10 µg/ml 24 h, [3H]-thymidine.
Setting [3] is: PBMC from 3 healthy donors, compound 48 h, then PHA-P 10 µg/ml 24 h, [3H]-thymidine.

Read-outs that look alike come from different tables or passages of the source.

As for `NC1=CC(=N\c2ccc(N)cc2)/C(N)=CC/1=N/c1ccc(N)cc1` [Bandrowski's base], in the series with T-cell clones, the “Detection of drug-responsive T-cell clones” value was “detected from each donor”, the “Dose-dependent proliferation of drug-responsive T-cell clones” value (shortened to “Dose-dependent proliferation”) is listed as “proliferate in a dose-dependent manner” and the “T-cell clones responsive to drug (SI ≥ 2)” value (from here on “T-cell clones responsive”) was 13%. Further, in the series on naïve T-cells, the “Proliferation of primed T-cells restimulated with titrated concentrations” value (shortened to “Proliferation … with titrated concentrations”) is “stimulated to proliferate in the presence of all 3 concentrations”; the “Number of donors with naïve T-cell priming” value (from here on “Number of donors”) turned out to be 3; the “Proliferation of primed T-cells, drug- vs medium-restimulated wells” value (from here on “Proliferation … vs medium-restimulated wells”) was “Proliferation of primed T-cells was observed”. In addition, in the series on PBMC (setting [2]), the IC50 is 5 µM.

As for `NC(=O)N1c2ccccc2C=Cc2ccccc21` [Carbamazepine], the “Detection of drug-responsive T-cell clones” value with T-cell clones is on record as “not detected”. In the series with naïve T-cells, the “Number of donors” value is reported as 1 and the “Proliferation … vs medium-restimulated wells” value was “not observed”. For the same molecule, the “Proliferation of primed T-cells on restimulation at highest concentration” value in the series with naïve T-cells (restimulated at 200 µM) is “weakly significant proliferative response”. In the series on PBMC (PBMC from 3 healthy donors, compound 48 h, then PHA-P 10 µg/ml 24 h, [3H]-thymidine, listed as carbamazepine), the IC50 is ≥ 50 µM. In the series with PBMC (setting [3]), the IC50 came out at 260 µM.

In the case of `CN(C)CCOC(c1ccccc1)c1ccccc1` [Diphenhydramine], in the series on T-cell clones, the “Overall immunogenicity call in T-cell assays” value is reported as “no false positives”.

In the case of `CC[C@H]1OC(=O)[C@H](C)[C@@H](O[C@H]2C[C@@](C)(OC)[C@@H](O)[C@H](C)O2)[C@H](C)[C@@H](O[C@@H]2O[C@H](C)C[C@H](N(C)C)[C@H]2O)[C@](C)(O)C[C@@H](C)C(=O)[C@H](C)[C@@H](O)[C@]1(C)O` [Erythromycin], the “Number of drug-responsive T-cell clones” value in the series on T-cell clones (donor 2) turned out to be 3. For the same molecule, in the series with T-cell clones (donor 2, maximum of 144 clones per donor), the “T-cell clones stimulated to proliferate, donor 2” value amounted to 2%. In the series on T-cell clones (donors other than donor 2), the “Detection of drug-responsive T-cell clones, other donors” value was “not detected”. Further, in the series with T-cell clones (flow cytometry CD4/CD8), the “CD phenotype of drug-responsive T-cell clones” value is “CD4+”. Moreover, in the series with T-cell clones, the “Overall immunogenicity call in T-cell assays” value is recorded as “potentially immunogenic” and the “Dose-dependent proliferation” value is on record as “dose-dependent proliferative responses”. Further, the “Routine Assays that are Positive (GSK)” value in series [1] was “Reactive metabolite”. In addition, the IC50 in the series with PBMC (PBMC from 3 healthy donors, compound 48 h, then PHA-P 10 µg/ml 24 h, [3H]-thymidine, listed as erythromycin) is ≥ 50 µM. For the same molecule, the IC50 in the series with PBMC (setting [3]) came out at 160 µM.

In the case of `Cc1cc(NS(=O)(=O)c2ccc(N=O)cc2)no1` [Nitroso sulfamethoxazole, 4-Nitrososulfamethoxazole], in the series on T-cell clones, the “Detection of drug-responsive T-cell clones” value was “detected from each donor”, the “Dose-dependent proliferation” value was “proliferate in a dose-dependent manner” and the “T-cell clones responsive” value came to 10.0%. Besides, in the series with naïve T-cells, the “Proliferation … with titrated concentrations” value is given as “stimulated to proliferate in the presence of all 3 concentrations”; the “Number of donors” value stood at 3; the “Proliferation … vs medium-restimulated wells” value is listed as “Proliferation of primed T-cells was observed”. Further, the IC50 in the series on PBMC (PBMC from 3 healthy donors, compound 48 h, then PHA-P 10 µg/ml 24 h, [3H]-thymidine, listed as nitroso sulfamethoxazole) was ≥ 50 µM. In addition, the IC50 in the series on PBMC (setting [3]) worked out at 250 µM.

With `CCN1CCN(C(=O)N[C@@H](C(=O)N[C@@H]2C(=O)N3[C@@H]2SC(C)(C)[C@@H]3C(=O)O)c2ccccc2)C(=O)C1=O` [Piperacillin], the “Detection of drug-responsive T-cell clones” value in the series on T-cell clones was “not detected”. For the same molecule, in the series with naïve T-cells, the “Proliferation … with titrated concentrations” value is “not detected” and the “Proliferation … vs medium-restimulated wells” value is reported as “not observed”. In addition, in the series on PBMC (setting [2]), the IC50 was 1000 µM.

For `CN[C@H](CC(C)C)C(=O)N[C@H]1C(=O)N[C@@H](CC(N)=O)C(=O)N[C@H]2C(=O)N[C@H]3C(=O)N[C@H](C(=O)N[C@H](C(=O)O)c4cc(O)cc(O)c4-c4cc3ccc4O)[C@H](O)c3ccc(c(Cl)c3)Oc3cc2cc(c3O[C@@H]2O[C@H](CO)[C@@H](O)[C@H](O)[C@H]2O[C@H]2C[C@](C)(N)[C@H](O)[C@H](C)O2)Oc2ccc(cc2Cl)[C@H]1O` [Vancomycin], in the series on T-cell clones, the “Detection of drug-responsive T-cell clones” value is listed as “detected from each donor”, the “Dose-dependent proliferation” value is “proliferate in a dose-dependent manner” and the “T-cell clones responsive” value came out at 9.7%. In addition, in the series with naïve T-cells, the “Proliferation … with titrated concentrations” value is “stimulated to proliferate in the presence of all 3 concentrations”; the “Number of donors” value came to 3; the “Proliferation … vs medium-restimulated wells” value is “Proliferation of primed T-cells was observed”. In addition, the IC50 with PBMC (Homo sapiens, PBMC) came to 2000 µM.
